Source: PMC9541843, “N‐terminal alterations turn the gut hormone GLP‐2 into an antagonist with gradual loss of GLP‐2 receptor selectivity towards more GLP‐1 receptor interaction” (British Journal of Pharmacology, 2022)
Peptide text beside a SMILES is read from it. * marks the point of attachment. C16 diacid = O=C(O)CCCCCCCCCCCCCCC(=O)*

Key:
human GLP‐1R [1] = target: T1, human GLP‐1R (Homo sapiens, UniProt P43220); experiment: cAMP accumulation, agonism (selectivity)
human GLP‐1R [2] = target: T1, human GLP‐1R; experiment: cAMP accumulation, inhibition of GLP‐1‐mediated response (selectivity)
human GLP‐2R = target: T2, human GLP‐2R (Homo sapiens, UniProt O95838); experiment: cAMP accumulation, inhibition of GLP‐2‐induced activation
T2 sequence (O95838 1-553): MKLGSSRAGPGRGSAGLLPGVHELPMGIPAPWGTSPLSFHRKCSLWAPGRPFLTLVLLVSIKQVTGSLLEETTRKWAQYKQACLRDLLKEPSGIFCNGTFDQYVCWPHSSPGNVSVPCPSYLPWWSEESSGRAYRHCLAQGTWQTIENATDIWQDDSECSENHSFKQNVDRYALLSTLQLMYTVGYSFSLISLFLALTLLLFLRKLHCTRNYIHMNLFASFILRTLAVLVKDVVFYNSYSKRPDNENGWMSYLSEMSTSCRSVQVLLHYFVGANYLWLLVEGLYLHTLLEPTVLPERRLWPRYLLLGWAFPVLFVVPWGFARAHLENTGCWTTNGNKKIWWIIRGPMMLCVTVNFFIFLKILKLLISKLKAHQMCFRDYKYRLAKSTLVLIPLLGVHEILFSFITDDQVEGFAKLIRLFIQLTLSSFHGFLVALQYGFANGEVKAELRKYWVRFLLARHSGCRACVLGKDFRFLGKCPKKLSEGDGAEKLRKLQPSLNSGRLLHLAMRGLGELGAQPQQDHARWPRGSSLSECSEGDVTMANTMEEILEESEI

T1 sequence (P43220 24-463): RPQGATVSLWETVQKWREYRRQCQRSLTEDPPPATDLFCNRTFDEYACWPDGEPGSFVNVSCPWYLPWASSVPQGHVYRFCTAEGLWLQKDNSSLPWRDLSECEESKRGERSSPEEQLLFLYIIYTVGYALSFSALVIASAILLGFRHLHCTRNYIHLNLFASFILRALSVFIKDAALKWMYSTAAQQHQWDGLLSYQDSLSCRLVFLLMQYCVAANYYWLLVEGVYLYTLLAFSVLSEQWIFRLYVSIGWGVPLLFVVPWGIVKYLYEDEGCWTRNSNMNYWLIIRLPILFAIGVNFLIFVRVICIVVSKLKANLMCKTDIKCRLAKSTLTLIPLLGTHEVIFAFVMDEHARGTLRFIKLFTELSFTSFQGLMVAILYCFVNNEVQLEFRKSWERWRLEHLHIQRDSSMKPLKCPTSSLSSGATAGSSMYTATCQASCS

EC50 (human GLP‐1R [1]): 2.5 nM | Efficacy of GLP‐1R activation (human GLP‐1R [1]; COS‐7 cells, human GLP‐1R, cAMP, 1 μM stimulation, n = 3 in duplicate): 16% | IC50 (human GLP‐1R [2]): 79 nM | inhibition at 1 µM (human GLP‐1R [2]; COS-7, read-out: Inhibition of GLP‐1‐mediated cAMP response at the human GLP‐1R): 41% | IC50 (human GLP‐2R): 11.7 nM | Inhibition of GLP‐2‐induced cAMP at the human GLP‐2R (human GLP‐2R; at 1 μM peptide (highest tested concentration), COS‐7 cells): 95%
Compound: CC[C@H](C)[C@H](NC(=O)[C@H](Cc1ccccc1)NC(=O)[C@H](CC(=O)O)NC(=O)[C@H](CCCNC(=N)N)NC(=O)[C@H](C)NC(=O)[C@H](C)NC(=O)[C@H](CC(C)C)NC(=O)[C@H](CC(N)=O)NC(=O)[C@H](CC(=O)O)NC(=O)[C@H](CC(C)C)NC(=O)[C@@H](NC(=O)[C@@H](NC(=O)[C@H](CC(N)=O)NC(=O)[C@H](CCSC)NC(=O)[C@H](CCC(=O)O)NC(=O)[C@H](CC(=O)O)NC(=O)[C@H](CO)NC(=O)[C@H](Cc1ccccc1)NC(=O)[C@H](CO)NC(=O)CNC(=O)CCCCCCCCCCCCCCC(=O)O)[C@@H](C)O)[C@@H](C)CC)C(=O)N[C@@H](CC(N)=O)C(=O)N[C@@H](Cc1c[nH]c2ccccc12)C(=O)N[C@@H](CC(C)C)C(=O)N[C@H](C(=O)N[C@@H](CCC(N)=O)C(=O)N[C@H](C(=O)N[C@@H](CCCCN)C(=O)N[C@H](C(=O)N[C@H](C(=O)N[C@@H](CC(=O)O)C(=O)O)[C@@H](C)O)[C@@H](C)CC)[C@@H](C)O)[C@@H](C)CC [GLP‐2(4‐33)(C16‐diacid/4)] ({C16 diacid}-GSFSDEMNTILDNLAARDFINWLIQTKITD-OH)
